Experimental data published in the supplement of paper PMC10627819.

Assays:
S. pneumoniae D39V [1] = test: Bliss interaction score (quartile over a dose matrix) (fitness difference); higher = more antagonism (negative = synergy)
How it was run: (§1)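 Values were capped at 1 after dividing OD595 at stationary-phase entry by the plate's robust no-drug mean. This ratio is fitness, and single-drug fitness was inferred from the combination data. The Bliss score is observed minus product-expected fitness, given as quartiles over technical, biological and donor/recipient replicates.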

S. aureus Newman [2] = test: as above
How it was run: as §1

S. aureus DSM 20231 [3] = test: as above
How it was run: as §1

B. subtilis 168 [4] = test: as above
How it was run: as §1

S. pneumoniae D39V [5] = test: fitness (endpoint OD595 vs no drug) (fraction); higher = more growth
How it was run: (§2)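 In 384-well plates at 37 °C, cultures began at OD595 0.01 in 30 µl, with 55 µl used for S. pneumoniae. OD595 readings every 30 min for 14 h were corrected by the first reading. Fitness divides the stationary-phase transition optical density by the robust mean of no-drug control wells. The result is capped at 1.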

S. aureus Newman [6] = test: as above
How it was run: as §2

S. aureus DSM 20231 [7] = test: as above; settings: first compound 0.125 µg/mL
How it was run: as §2

B. subtilis 168 [8] = test: as above
How it was run: as §2
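Throughout, for Bliss interaction score (quartile over a dose matrix): first quartile when negative (synergy) and third quartile when positive (antagonism).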

CCC[C@@H]1C[C@@H](C(=O)N[C@@H]([C@H]2O[C@H](SC)[C@H](O)[C@@H](O)[C@H]2O)[C@H](C)Cl)N(C)C1 [Clindamycin] + Cc1ncc([N+](=O)[O-])n1CCO [Metronidazole]
Settings | Bliss interaction score
B. subtilis 168 [4] | 0.0367
S. aureus DSM 20231 [3] | 0.0542
S. aureus Newman [2] | 0.0887
S. pneumoniae D39V [1] | 0.0971

Settings | fitness
B. subtilis 168 [8], first compound 0.0625 µg/mL, partner 0.625 µg/mL | 0.572
B. subtilis 168 [8], first compound 0.0625 µg/mL, partner 1.25 µg/mL | 0.54
B. subtilis 168 [8], first compound 0.0625 µg/mL, partner 2.5 µg/mL | 0.548
B. subtilis 168 [8], first compound 0.125 µg/mL, partner 0.625 µg/mL | 0.403
B. subtilis 168 [8], first compound 0.125 µg/mL, partner 1.25 µg/mL | 0.38
B. subtilis 168 [8], first compound 0.125 µg/mL, partner 2.5 µg/mL | 0.373
B. subtilis 168 [8], first compound 0.25 µg/mL, partner 0.625 µg/mL | 0.38
B. subtilis 168 [8], first compound 0.25 µg/mL, partner 1.25 µg/mL | 0.381
B. subtilis 168 [8], first compound 0.25 µg/mL, partner 2.5 µg/mL | 0.369
S. aureus Newman [6], first compound 0.0312 µg/mL, partner 0.625 µg/mL | 0.666
S. aureus Newman [6], first compound 0.0312 µg/mL, partner 1.25 µg/mL | 0.801
S. aureus Newman [6], first compound 0.0312 µg/mL, partner 2.5 µg/mL | 0.821
S. aureus Newman [6], first compound 0.0625 µg/mL, partner 1.25 µg/mL | 0.425
S. aureus Newman [6], first compound 0.0625 µg/mL, partner 2.5 µg/mL | 0.444
S. aureus Newman [6], first compound 0.125 µg/mL, partner 0.625 µg/mL | 0.0588
S. aureus Newman [6], first compound 0.125 µg/mL, partner 1.25 µg/mL | 0.056
S. aureus Newman [6], first compound 0.125 µg/mL, partner 2.5 µg/mL | 0.0505
S. pneumoniae D39V [5], first compound 0.0125 µg/mL, partner 1.25 µg/mL | 0.815
S. pneumoniae D39V [5], first compound 0.0125 µg/mL, partner 2.5 µg/mL | 0.827
S. pneumoniae D39V [5], first compound 0.0125 µg/mL, partner 5 µg/mL | 0.828
S. pneumoniae D39V [5], first compound 0.015 µg/mL, partner 1.073 µg/mL | 0.956
S. pneumoniae D39V [5], first compound 0.015 µg/mL, partner 2.145 µg/mL | 0.912
S. pneumoniae D39V [5], first compound 0.015 µg/mL, partner 4.29 µg/mL | 0.841
S. pneumoniae D39V [5], first compound 0.025 µg/mL, partner 1.25 µg/mL | 0.581
S. pneumoniae D39V [5], first compound 0.025 µg/mL, partner 2.5 µg/mL | 0.553
S. pneumoniae D39V [5], first compound 0.025 µg/mL, partner 5 µg/mL | 0.518
S. pneumoniae D39V [5], first compound 0.03 µg/mL, partner 1.073 µg/mL | 0.833
S. pneumoniae D39V [5], first compound 0.03 µg/mL, partner 2.145 µg/mL | 0.839
S. pneumoniae D39V [5], first compound 0.03 µg/mL, partner 4.29 µg/mL | 0.771
S. pneumoniae D39V [5], first compound 0.05 µg/mL, partner 1.25 µg/mL | 0.269
S. pneumoniae D39V [5], first compound 0.05 µg/mL, partner 2.5 µg/mL | 0.242
S. pneumoniae D39V [5], first compound 0.05 µg/mL, partner 5 µg/mL | 0.246
S. pneumoniae D39V [5], first compound 0.06 µg/mL, partner 1.073 µg/mL | 0.61
S. pneumoniae D39V [5], first compound 0.06 µg/mL, partner 2.145 µg/mL | 0.682
S. pneumoniae D39V [5], first compound 0.06 µg/mL, partner 4.29 µg/mL | 0.642

fitness, one replicate
Settings | first compound 0.0039 µg/mL | first compound 0.0078 µg/mL | first compound 0.0156 µg/mL | first compound 0.0312 µg/mL | first compound 0.0625 µg/mL | first compound 0.125 µg/mL
B. subtilis 168 [8], partner 0.625 µg/mL | 0.918 | 0.528 | 0.83 | – | – | –
B. subtilis 168 [8], partner 1.25 µg/mL | 0.984 | 0.804 | 0.842 | – | – | –
B. subtilis 168 [8], partner 2.5 µg/mL | 0.907 | 0.547 | 0.867 | – | – | –
S. aureus Newman [6], partner 0.781 µg/mL | – | – | – | 0.71 | 0.533 | 0.0936
S. aureus Newman [6], partner 1.562 µg/mL | – | – | – | 0.72 | 0.582 | 0.13
S. aureus Newman [6], partner 3.124 µg/mL | – | – | – | 0.688 | 0.595 | 0.113

S. aureus DSM 20231 [7]
Settings | fitness
partner 0.625 µg/mL | 0.0566
partner 1.25 µg/mL | 0.0685
partner 2.5 µg/mL | 0.0748
